For data set [1], the system named is seedling blight of rice plant (pathogen Fusarium sp. and Rhizoctonia sp.). As to the kind of experiment: Exterminating test on seedling blight of rice plant (Experimental Example 1). Format: in vivo. The following applies: soil, 408 h, read-out: Percentage of healthy seedlings. In a few lines: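 Pathogen-contaminated nursery soil (Fusarium sp., Rhizoctonia sp.) mixed with 5% compound dust at 5 g per box; Nihonbare rice sown, grown 7 days at 17° C in lighting chamber, then moved to field. Assessed 10 days later as percentage of healthy seedlings; commercial 4% hydroxyisoxazol dust run as control.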

For another data set, the system named is Staphylococcus aureus. The experiment in a line: Minimum inhibitory amount, dilution methods (Example 24). The following applies: Staphylococcus aureus, read-out: Minimum inhibitory amount. Format: cell-based. An excerpt: (§1) Bactericidal activity and fungicidal activity of the active compounds of the present invention were examined by potato-dextrose agar dilution method, or [2] glucose bouillon medium dilution method. The results are shown in Table 10 below as the minimum inhibitory concentration (the minimum concentration of active compound found to produce 100% control of the test bacteria and fungi).

The subject of the next data set is Cladosporium harbarum. The data set is described as above. It counts as cell-based. The following applies: Cladosporium, read-out: Minimum inhibitory amount.
From the text: as §1

The next data set has as its system Penicillium Citrinum. The data set is described as above. Format: cell-based. The following applies: Penicillium citrinum, read-out: Minimum inhibitory amount.
From the text: as §1

In the next data set the test system is Bacillus subtilis. The data set is described as above. It counts as cell-based. The following applies: Bacillus subtilis, read-out: Minimum inhibitory amount.
From the text: as §1

The next data set concerns Escherichia coli. The description is as above. Format: cell-based. The following applies: Escherichia coli, read-out: Minimum inhibitory amount.
From the text: as §1

A further data set concerns Aspergillus niger. The data set is described as above. It counts as cell-based. The following applies: Aspergillus niger, read-out: Minimum inhibitory amount.
From the text: as §1

Data set [2] concerns Fusarium wilt of cucumber. The experiment in a line: Exterminating test on Fusarium wilt of cucumber (Experimental Example 4). It counts as in vivo, Fusarium oxysporum f, cucumerinum. The following applies: Fusarium, soil, 336 h, read-out: Percentage of healthy seedlings. In a few lines: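 Pots of steam-sterilized soil mixed with 20 g infested soil, sown with 18 cucumber seeds (Tokiwazibai), drenched with 100 ml aqueous suspension of 80% wettable powder. Benlate 50% wettable powder run as control. Disease scored two weeks after planting as percentage of healthy seedlings.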

The subject of data set [3] is cucumber (variety: Azumamidori). The experiment in a line: Phytotoxicity on cucumber (Experimental Example 3). The following applies: 1,000 ppm. It counts as in vivo.
The test system of data set [4] is cucumber (variety; Tokiwazibai). As to the kind of experiment: Phytotoxicity on cucumber (Experimental Example 4). Format: in vivo. The following applies: 500 ppm. The method, then:
Exterminating test on Fusarium wilt of cucumber Twenty (20) grams of infected soil was added uniformly into each pot which was filled with steam sterilized field soil, then 18 seeds of cucumber (variety; Tokiwazibai) were sowed in each pot. Eighty percent (80%) wettable powder of the present invention was diluted with water to obtain a suspension, and each pot was drenched with the suspension in an amount of 100 ml. Fifty percent (50%) wettable powder of methyl-1-(butylcarbamoyl) 2-benzimidazol carbamate (hereinafter referred to as Benlate) on the market was used as a control and tested by the same method. After two weeks of planting, degrees attacked by the pathogen was observed and a "percentage of healthy seedlings" was calculated as follows: [formula]

Data set [5] deals with Rhizoctonia solani (damping-off of cucumber). As to the kind of experiment: Exterminating test on damping-off of cucumber (Experimental Example 3). The following applies: Rhizoctonia solani, soil, 240 h, read-out: Percentage of healthy seedlings. Format: in vivo. In short, it runs like this:
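Pots of field soil infested with Rhizoctonia solani (5 g/pot), sown with 10 Azumamidori cucumber seeds, then drenched with 50 ml aqueous suspension of 80% wettable powder and kept in greenhouse. PCNB 50% wettable powder as control. Percentage of healthy seedlings scored 10 days after inoculation.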

Data set [6] concerns rice plant (variety: Nihonbare). As to the kind of experiment: Phytotoxicity on rice plant (Experimental Example 1). Format: in vivo. The following applies: 0.25g/box a.i. The method, then:
Exterminating test on seedling blight of rice plant Nursery boxes (60 × 30 × 3 cm) were filled with soil which were contaminated with pathogen (Fusarium sp. and Rhizoctonia sp.) The dust in which the present compound was contained in a ratio of 5% by weight was added in the box in a ratio of 5 grams per box and mixed well with soil. Thereafter, seeds of rice plant (variety: Nihonbare) were sowed in drills at a rate of 0.3 liter per box and grown up in a lighting chamber at 17° C. After 7 days from the sowing, the boxes were carried out in the field. Furthermore, 10 days thereafter the observations were made. Four percent (4%) dust of 3-hydroxy-5-methyl isoxazol (hereinafter referred to as hydroxyisoxazol) on the market was used as a control and tested by the same method. The test results are shown in Table 2 with a "percentage of healthy seedlings". The percentage of healthy seedlings was calculated as follows: […]

≈ marks a conversion by molar mass, not a printed value.

`CNC(=O)Oc1ccccc1C(=O)NC=C(Cl)Cl` [Compound No. 19, O-(N'-methylcarbamoyl)-N-(2,2-dichlorovinyl) salicylamide]: the Percentage of healthy seedlings at 0.25 g/box in data set [1] is 64.7%. Besides, the MIC with Staphylococcus aureus was found to be 10 µg/mL (≈ 34.6 µM); with Cladosporium harbarum, 5 µg/mL (≈ 17.3 µM); in the data set on Penicillium Citrinum, 10 µg/mL (≈ 34.6 µM); with Bacillus subtilis, 10 µg/mL (≈ 34.6 µM); in the data set on Escherichia coli, 60 µg/mL (≈ 208 µM); with Aspergillus niger, 20 µg/mL (≈ 69.2 µM). Besides, the pest or weed control at 500 ppm in data set [2] came out at 38%. Further, the Phytotoxicity result in data set [3], in data set [4] and in [6] was “Nil” each time. In addition, the pest or weed control at 1000 ppm in data set [5] was 65%.
